Experimental data reported in patent US20110212199A1, “AGENT FOR TREATING EYE DISEASES” (priority 2003, published 2011).
Entries after “also recorded” stand apart in the source; their conditions may differ.

How the values were obtained:
Type in all cases: in vivo, human
normal tension glaucoma = test: Example 9: normal tension glaucoma patient
Protocol: The patient is person diagnosed as normal tension glaucoma. Water-soluble 17β-estradiol inclusion product (Cyclodextrin-encapsulated 17β-estradiol available from SIGMA CO. […] To the above-mentioned patient, 1 drop (25 μl) of eye drops was dropped per one eye once every morning for 10 days.

[1] = tested on: high intraocular pressure open-angle glaucoma; test: Example 10: high intraocular pressure open-angle glaucoma patient; parameters: intraocular pressure, right: dose or concentration left out as unconfirmed
Protocol: The patient is person diagnosed as high intraocular pressure open-angle glaucoma. Water-soluble 17β-estradiol inclusion product (Cyclodextrin-encapsulated 17β-estradiol available from SIGMA CO. […] To the above-mentioned patient, 1 drop (25 μl) of eye drops was dropped once every morning for a week.

cataract = test: Example 11: cataract patient; details: 1 mg/l, 1 drop (50 μl) once per day
presbyopia [2] = test: Example 12: presbyopia, near point; details: for near point, left eye: before 29 cm
Protocol: The patient is person of presbyopia having slight myopia of −2.5 dioptre and −1.0D of astigmatism. When a near point of the left eye of the patient was measured without lens correction, it was 29 cm. Water-soluble 17β-estradiol inclusion product (Cyclodextrin-encapsulated 17β-estradiol available from SIGMA CO. […] To the patient was dropped 1 drop (25 μl) of eye drops at 9 AM per each eye. […] Incidentally, the far point was 41±2 cm in average.

[3] = tested on: pigmentary retinal degeneration; test: Example 13: pigmentary retinal degeneration; details: after 77 days
Protocol: The patient is person, and has artificial intraocular lens inserted eyes already carried out a cataract operation. Due to pigmentary retinal degeneration, narrowing of visual field occurs. […] After 77 days from initiation of administration, it could be confirmed that both of visual acuity and visual field were improved. Also, when the visual fields were measured by OCTOPUS 1-2-3 static perimeter before administration and after 77 days from the initiation of the administration, and they were compared, it can be confirmed to be improved. (see FIGS. 27 to 30)

chalazion = test: Example 14: chalazion; details: child, right eye; 1 mg/l, 1 drop (50 μl) once every morning
myopia = test: Example 15: myopia
presbyopia [4] = test: Example 16: presbyopia, corrected near visual acuity; details: after 14 days; before 0.4
Text: To […] with presbyopia having corrected near visual acuity (near vision after correction) before treatment of […]

chorioretinal hemorrhage = test: Example 17: chorioretinal hemorrhage; details: person, right eye; 1 mg/l, 1 drop (50 μl) once every morning, with Adona 30 mg a day orally
Mooren's corneal ulcer = test: Example 18: corneal ulcer; details: person, right eye; 1 mg/l, 1 drop (50 μl) twice a day
Text: Thus, it can be considered that treatment of autoimmune disease is possible.

[5] = tested on: granular corneal degeneration; test: Example 19: corneal degeneration
iridocyclitis = test: Example 20: iridocyclitis; details: person, right eye; 1 mg/l, 1 drop (50 μl) every morning; after 1 week
[6] = tested on: Posner-Schlossmans' Syndrome; test: Example 21: Posner-Schlossmans' Syndrome
schizophrenia = test: Example 22: central nerve diseases (schizophrenia patient)
chorioretinal atrophy = test: Example 23: chorioretinal atrophy; details: person, 1 mg/l
diabetic retinopathy = test: Example 24: diabetic retinopathy
macular hole = test: Example 25: macular hole
dynamic visual acuity = test: Example 26: dynamic visual acuity; details: person, left eye; 10 μg/ml, 50 μl one time; 30 minutes to 1 hour and 15 minutes after dropping
[7] = tested on: corneal endothelial cells; test: Example 27: regeneration and protection of corneal endothelial cells; details: 10 days
Text: As a measurement device, NONCON ROBO (KONAN INC) specular microscope was used.

photopsia = test: Example 28: photopsia; details: person; 10 mg/l, 1 drop (50 μl) once a day for 3 weeks
asthenopia = test: Example 30: asthenopia; details: person; 10 mg/l, once (50 μl) a day; 3 weeks
[8] = tested on: central chorioretinopathy (choriotetinitis); test: Example 31: central chorioretinopathy

**Q.** Which results are given for `C[C@]12CC[C@@H]3c4ccc(O)cc4CC[C@H]3[C@@H]1CC[C@@H]2O` [17β-estradiol]?
**A.** visual field by Octopus 1-2-3 (normal tension glaucoma; after 10 days): both eyes extremely well improved; intraocular pressure, left (normal tension glaucoma; after 10 days, before 12): 9 mmHg; intraocular pressure, right (normal tension glaucoma; person, 100 mg/l, 1 drop (25 μl) every morning for 10 days, before 14): 12 mmHg; intraocular pressure, left ([1]; after a week, before 24): 18 mmHg; visual field, left eye ([1]; after a week, progressed defect before): slightly improved; visual field, right eye ([1]; after a week, slight defect before): substantially normally recovered; intraocular pressure, left ([1]; at 3 weeks): 19 mmHg; intraocular pressure, right ([1]; at 3 weeks): 20 mmHg; intraocular pressure, right ([1]; person, inclusion product […], 1 drop (25 μl) every morning, after a week, before 23): 16 mmHg; opacity of cataract, slit lamp microscope (cataract): opacity of cataract had been reduced; visual acuity (cataract): improvement in visual acuity was admitted; near point, left eye (presbyopia [2]; after 3 hours): 24 cm; far point, average (presbyopia [2]; in vivo): 41±2 cm; maximum improvement in refraction (near point) (presbyopia [2]; in vivo): 5 cm; near point, left eye (presbyopia [2]; person, 100 mg/l, 1 drop (25 μl), after 1 hour): 27 cm; visual fields by OCTOPUS 1-2-3 static perimeter [3]: improved; Vs vision after correction ([3]; before 0.8): 1.0; visual acuity Vs ([3]; before 0.8): 0.5; time until tumor disappeared (chalazion): 12 days; visual acuity Vs (myopia; (1) after 9 days, before 0.6): 1.0; visual acuity Vs (myopia; (2) after 45 days, before 0.3): 0.5; near vision after correction Vs (30 cm) (presbyopia [4]): 0.7; time until hemorrhage disappeared (chorioretinal hemorrhage): 45 days; time in which the disease was cured (Mooren's corneal ulcer): 3 weeks; Vs vision after correction ([5]; (1) 2 weeks, before n·c): 0.8; visual acuity Vs ([5]; (1) person, left eye, 1 mg/l, 1 drop twice a day, 2 weeks, before 0.6 (n·c)): 0.4; iridocyclitis outcome (iridocyclitis): inflammatory cells in anterior chamber disappeared; iritis ([6]; after 1 week): iritis disappeared; intraocular pressure Tos ([6]; patient, left eye, 1 mg/l, 1 drop (50 μl) once a day for 1 week, before 36): 17 mmHg; visual acuity Vs (schizophrenia; after 14 days, initiation 0.09): Vs = 0.1 × IOL (0.1); Vs vision after correction (schizophrenia; after 14 days, initiation 0.1): Vs = 0.1 × IOL (0.1); Vs vision after correction (schizophrenia; after 42 days): 0.1; visual acuity Vs (schizophrenia; after 42 days): 0.09; Vs vision after correction (schizophrenia; after 77 days): 0.15; visual acuity Vs (schizophrenia; after 77 days): 0.1; Vs vision after correction (schizophrenia; after 115 days): 0.2; visual acuity Vs (schizophrenia; after 115 days): 0.09; mental state (schizophrenia; patient's statement after 42 days, overall): improvement in mental state; also recorded: be encouraged; vision after correction, left eye (chorioretinal atrophy; 1 drop (50 μl) once a day for 1 month, before 0.1): 0.3; vision after correction, right eye (chorioretinal atrophy; 50 μl once a day for 1 month, before 0.08 (n·c)): 0.2; retinal bleeding (diabetic retinopathy; after about 100 days): retinal bleeding was disappeared; retinal bleeding, photograph of eyegrounds (diabetic retinopathy; person, 1 mg/l, 1 drop (50 μl) once everyday, after about 2 months): slightly improved; visual acuity, left eye (macular hole; after 1 month, before 0.7): 1.2; macular hole outcome (macular hole; person, left eye, 10 mg/l, 1 drop (50 μl) twice a day for 1 month): macular hole was cured; dynamic visual acuity (KV-100) (dynamic visual acuity): abruptly improved; number of left eye endothelial cells ([7]; before 2906): 3496 per mm^2; number of right eye endothelial cells ([7]; person, 1 mg/l, 1 drop (50 μl) once a day, before 2801): 3410 cells/mm²; photopsia symptom (photopsia): the symptom was lightened; asthenopia (asthenopia): asthenopia was lightened; visual acuity Vs ([8]; after treatment, before 0.1): 0.3; Vs corrected vision ([8]; after treatment, before 0.8): 1.5; macular edema ([8]; person, left eye, 10 mg/l, 1 drop (50 μl) twice a day, a week): macular edema was lightened
